For data set [1], the system named is guinea pig. Briefly: Protection from the lethal effect of aconitine in the guinea pig. It counts as in vivo. The note with it: Cavia porcellus, 10 min, intravenous, 10 minutes before aconitine perfusion, read-out: percentage increase in the time of death by aconitine with respect to the control animals; for change in vivo at 0.025 mg/kg: dose 25 μg/kg; for change in vivo at 0.009 mg/kg: dose 9 μg/kg; for change in vivo at 0.015 mg/kg: dose 15 μg/kg; for change in vivo at 0.02 mg/kg: dose 20 μg/kg; for change in vivo at 0.01 mg/kg: dose 10 μg/kg. As for the experimental part:
Protection from the methal effect of aconitine in the guinea pig. For the compounds according to the invention, an evaluation was made of their capacity to antagonise the lethal effect of aconitine in native guinea pigs of both sexes having an average weight of 400±50 g, anesthetized with 10% ethylurethan (1 g/kg i.p.), by making an E.C.G. precardiacal recording. Death was induced by perfusing aconitine through the jugular at a dose of 150 γ/kg/hour (5 ml/hour). The time of commencement of arrhythmia, the time of commencement of fibrillation and the time of death were checked. The product under examination were administered to the jugular vein 10 minutes before commencement of perfusion in doses from 0.01 mg/kg to 10 mg/kg.

The subject of data set [2] is isolated guinea pig trachea. The data set is described as follows: Beta-blocking activity by the isolated guinea pig trachea method. As to conditions: concentration able to inhibit 50% of the response; 37° C., 12 minutes before stimulation. The protocol: (b) Beta-blocking activity by the isolated guinea pig trachea method
The series was also tested for beta-blocking activity at the level of the isolated guinea pig trachea, evaluated as antagonism to the effect of isoprenaline.
A trachea segment was withdrawn from animals weighing 450±50 g, and a spiral of tissue was prepared and then suspended in a 20 ml bath of oxygenated Tyrode containing 10^-7 g/ml of acetylcholine and […] of eserine, the bath being temperature-controlled at 37° C. The recording was made by means of an isotonic pen with maximum amplification,loaded to 0.5 g and constantly cibrated.
Having determined the sub-maximum concentration of isoprenaline for stimulating the preparation, the test substance was placed in contact with it at different concentrations 12 minutes before stimulation, then evaluating the antagonistic effect.

Data set [3] relates to beta-adrenergic cardiac receptors (isolated guinea pig atrium). Briefly: Beta-blocking activity: isolated guinea pig atrium method. As to conditions: concentration inhibiting 25% of the response to isoprenaline, 29° C., 10 minutes before isoprenaline. As for the experimental part: (a) Beta-blocking activity: isolated guinea pig atrium method
The compounds under examination were tested on the isolated guinea pig atrium for their capacity to antagonise the positive inotropic and chronotropic effects induced by isoprenaline. The preparations were made up from native guinea pigs weighing 450±50 g and suspended in a 10 ml bath of oxygenated Tyrode maintained at 29° C., the frequency and force of contraction being recorded by means of an isotonic pen loaded with 1.5 g and having an amplification ratio of 1:15. The substance under test was added to the medium in a volume of 0.1 ml 10 minutes before stimulation by isoprenalina administered at the optimum concentration which had been determined on the basis of the reactivity of the preparation.

Data set [4] is described as follows: LD50 in the male Wistar rat by intravenous administration. The note with it: in vivo, i.v.

Structures can show the parent of a compound that is named as a salt.

As a reminder, the LD50 is the dose expected to kill half of the subjects tested. Read a high LD50 as lower toxicity. For the molecule `CC(C)NCC(O)COc1ccc2c(c1)NC(=O)CS2` (stereo not drawn) [VII], in data set [1], the change in vivo at 0.025 mg/kg was determined as 24.1%. Besides, in data set [2], the “IC50, antagonism in the response of the isolated guinea pig trachea to isoprenaline” value (“IC50, antagonism in the response” below) stood at 0.43 µg/mL. Also, in data set [3], the “IC25, positive chronotropic effect with isoprenaline” value (from here on “IC25, positive chronotropic effect”) came to 0.415 µg/mL and the “IC25, positive inotropic effect with isoprenaline” value (“IC25, positive inotropic effect” below) was 0.346 µg/mL. The LD50 in data set [4] came to 80 mg/kg.
Take `CC(C)(C)NCC(O)COc1cccc2c1SCC(=O)N2` (stereo not drawn) [XVII]: in data set [1], the change in vivo at 0.009 mg/kg was determined as 55.4%. Also, the “IC50, antagonism in the response” value in data set [2] stood at 0.0015 µg/mL. Also, in data set [3], the “IC25, positive chronotropic effect” value was determined as 0.000992 µg/mL and the “IC25, positive inotropic effect” value was 0.000276 µg/mL. The same molecule yielded an LD50 in data set [4] of 50 mg/kg.
`CC(C)NCC(O)COc1ccc2c(c1)SCC(=O)N2` (stereo not drawn) [Compound XI]: the change in vivo at 0.015 mg/kg in data set [1] amounted to 21.3%. Moreover, the “IC50, antagonism in the response” value in data set [2] stood at 0.76 µg/mL. Besides, in data set [3], the “IC25, positive chronotropic effect” value turned out to be 0.091 µg/mL and the “IC25, positive inotropic effect” value was 0.0743 µg/mL. Moreover, in data set [4], the LD50 was determined as 65 mg/kg.
The corresponding values for `CCC(C)NCC(O)COc1ccc2c(c1)SCC(=O)N2` (stereo not drawn) [XIV] are 20.6%, 0.25 µg/mL, 0.202 µg/mL, 0.0978 µg/mL and 68 mg/kg.
Take `CCC(C)NCC(O)COc1ccc2c(c1)NC(=O)CS2` (stereo not drawn) [Compound X]: the change in vivo at 0.025 mg/kg in data set [1] worked out at 11.3%. In data set [2], the “IC50, antagonism in the response” value was determined as 0.66 µg/mL. Besides, in data set [3], the “IC25, positive chronotropic effect” value came to 0.803 µg/mL and the “IC25, positive inotropic effect” value stood at 0.67 µg/mL. In data set [4], the median lethal dose (LD50) was 78 mg/kg.
Turning to `CC(C)CNCC(O)COc1ccc2c(c1)NC(=O)CS2` (stereo not drawn) [VIII], the change in vivo at 0.02 mg/kg in data set [1] was 19%. For the same molecule, in data set [2], the “IC50, antagonism in the response” value was found to be 1.14 µg/mL. Also, in data set [3], the “IC25, positive chronotropic effect” value is 0.861 µg/mL and the “IC25, positive inotropic effect” value is 0.741 µg/mL. The molecule also gave an LD50 in data set [4] of 83 mg/kg.
Consider `CC(C)(C)NCC(O)COc1cccc2c1CCC(=O)N2` (stereo not drawn) [Carteolol, 5-(3-tert.butylamino-2-hydroxy-propoxy)-3,4-dihydro-carbostyryl-hydrochloride, reference compound], for which, in data set [3], the “IC25, positive chronotropic effect” value turned out to be 0.00905 µg/mL and the “IC25, positive inotropic effect” value came to 0.00173 µg/mL. The molecule also yielded an LD50 in data set [4] of 50 mg/kg.
Consider `CC(C)NCC(O)COc1cccc2c1SCC(=O)N2` (stereo not drawn) [XV], for which, in data set [1], the change in vivo at 0.009 mg/kg was found to be 48.6%. Moreover, the “IC50, antagonism in the response” value in data set [2] came to 0.123 µg/mL. Moreover, in data set [3], the “IC25, positive chronotropic effect” value amounted to 0.0641 µg/mL and the “IC25, positive inotropic effect” value stood at 0.0587 µg/mL. The LD50 in data set [4] came to 73 mg/kg.
Take `CC(C)(C)NCC(O)COc1ccc2c(c1)NC(=O)CS2` (stereo not drawn) [IX]: the change in vivo at 0.01 mg/kg in data set [1] came to 25.9%. For the same molecule, in data set [2], the “IC50, antagonism in the response” value came out at 0.568 µg/mL. Besides, in data set [3], the “IC25, positive chronotropic effect” value amounted to 0.255 µg/mL and the “IC25, positive inotropic effect” value amounted to 0.203 µg/mL. The molecule also had an LD50 in data set [4] of 75 mg/kg.
`CCC(C)NCC(O)COc1cccc2c1SCC(=O)N2` (stereo not drawn) [XVIII]: the change in vivo at 0.01 mg/kg in data set [1] was 49.2%. Besides, in data set [2], the “IC50, antagonism in the response” value is 1.21 µg/mL. Besides, in data set [3], the “IC25, positive chronotropic effect” value is 0.803 µg/mL and the “IC25, positive inotropic effect” value was found to be 0.0705 µg/mL. In data set [4], this molecule displayed an LD50 of 75 mg/kg.
For the molecule `CC(C)CNCC(O)COc1ccc2c(c1)SCC(=O)N2` (stereo not drawn) [Compound XII], the change in vivo at 0.02 mg/kg in data set [1] turned out to be 16.4%. Further, in data set [2], the “IC50, antagonism in the response” value amounted to 0.806 µg/mL. For the same molecule, in data set [3], the “IC25, positive chronotropic effect” value amounted to 0.55 µg/mL and the “IC25, positive inotropic effect” value is 0.361 µg/mL. Further, in data set [4], the LD50 worked out at 82 mg/kg.
In the case of `CC(C)(C)NCC(O)COc1ccc2c(c1)SCC(=O)N2` (stereo not drawn) [Compound XIII, 7-(3-tert.butylamino-2-hydroxy)-propoxy-3,4-dihydro-2H-1,4-benzothiazin-3-one], the change in vivo at 0.01 mg/kg in data set [1] was determined as 39.7%. Further, the “IC50, antagonism in the response” value in data set [2] worked out at 0.125 µg/mL. Also, in data set [3], the “IC25, positive chronotropic effect” value was 0.0703 µg/mL and the “IC25, positive inotropic effect” value was found to be 0.0565 µg/mL. Besides, in data set [4], the LD50 is 60 mg/kg.
`CC(C)CNCC(O)COc1cccc2c1SCC(=O)N2` (stereo not drawn) [XVI]: in data set [1], the change in vivo at 0.01 mg/kg was 32.2%. The “IC50, antagonism in the response” value in data set [2] is 0.112 µg/mL. Moreover, in data set [3], the “IC25, positive chronotropic effect” value was 0.13 µg/mL and the “IC25, positive inotropic effect” value worked out at 0.0995 µg/mL. This molecule also showed an LD50 in data set [4] of 67 mg/kg.

For the origin of these results see US4535079A, “Alkanolaminoxy derivatives of 3,4-dihydro-2H-1,4-benzothiazin-3-one, their production process, and their pharmaceutical use” (Mediolanum Farmaceutici S.R.L., priority 1982, dated 1985).
